Test results: patent US9464117B2, “Herbicide-resistant proteins, encoding genes, and uses thereof” (Beijing Dabeinong Technology Group Co., Ltd., priority 2012, dated 2016)

Legend:
Assay type in all cases: in vivo
[1] = system: Arabidopsis T1 plants transformed with 24DT07 nucleotide sequence; experiment: Herbicide resistance effect test of transgenic Arabidopsis T1 plants; conditions: for differences of resistance levels between Arabidopsis T1 plants transformed with 24DT07, substituted, truncated and added 24DT07 nucleotide sequence: comparison of the four 24DT07 genotypes, 560 g ae/ha; for Highly resistant: 560 g ae/ha sprayed (1-fold field concentration), number of plants with growth consistent with blank solvent 7 days after spraying; for Non-resistant: number of dead plants 14 days after spraying
From the text: (§1) 24DT07 gene was used to transform Arabidopsis for the first time. At first, T1 transformants were selected from the background of un-transformed seeds, using glufosinate-ammonium selection scheme. About 40000 T1 seeds are screened among which 195 strains of T1 generation positive transformants (PAT gene) were identified, i.e. the transformation efficiency was about 0.5%. Herbicide resistance effect tests to 2,4-D dimethyl ammonium salt and agroxone of Arabidopsis T1 plants transformed with 24DT07 nucleotide sequence, substituted 24DT07 nucleotide sequence, truncated 24DT07 nucleotide sequence, added 24DT07 nucleotide sequence, control nucleotide sequence respectively and wild-type Arabidopsis plants were performed after 18 days of planting.
(§2) Arabidopsis T1 plants transformed with 24DT07 nucleotide sequence, substituted 24DT07 nucleotide sequence, truncated 24DT07 nucleotide sequence, added 24DT07 nucleotide sequence and control nucleotide sequence respectively and wild-type Arabidopsis plants were sprayed with 2,4-D dimethyl ammonium salt (560 g ae/ha, 1-fold concentration in field), agroxone (560 g ae/ha, 1-fold concentration in field) and blank solvent (water). Resistance conditions of the plants were counted 7 days and 14 days after spraying. Plants with growth conditions consistent with blank solvent (water) 7 days after spaying were classified as highly resistant plants; Plants with curly rosette leaves 7 days after spaying were classified as moderately resistant plants; Plants incapable of bolting 14 days after spaying were classified as low-resistant plants and the dead plants 14 days after spaying were classified as non-resistant plants. Because each Arabidopsis T1 plant is an independent transformation event, significant differences of individual T1 responses can be expected under a given dose.

[2] = system: Arabidopsis T1 plants transformed with added 24DT07 nucleotide sequence; experiment: as above; conditions: genotype 24DT07-a; for Highly resistant: 560 g ae/ha sprayed (1-fold field concentration), number of plants with growth consistent with blank solvent 7 days after spraying; for Non-resistant: 560 g ae/ha sprayed, number of dead plants 14 days after spraying
From the text: as §1, §2

[3] = system: Arabidopsis T1 plants transformed with substituted 24DT07 nucleotide sequence; experiment: as above; conditions: genotype 24DT07-i; for Highly resistant: 560 g ae/ha sprayed (1-fold field concentration), number of plants with growth consistent with blank solvent 7 days after spraying; for Non-resistant: 560 g ae/ha sprayed, number of dead plants 14 days after spraying
From the text: as §1, §2

[4] = system: Arabidopsis T1 plants transformed with truncated 24DT07 nucleotide sequence; experiment: as above; conditions: genotype 24DT07-t; for Highly resistant: 560 g ae/ha sprayed (1-fold field concentration), number of plants with growth consistent with blank solvent 7 days after spraying; for Non-resistant: 560 g ae/ha sprayed, number of dead plants 14 days after spraying
From the text: as §1, §2

[5] = system: maize plants containing 24DT07 nucleotide sequence; experiment: Herbicide-resistance effect test of the transgenic corn plants (prop root development); conditions: comparison of the four 24DT07 genotypes; 8960 g ae/ha
Procedure: (§3) Herbicide resistance effects tests to 2,4-D dimethyl ammonium salt and agroxone of maize plants containing 24DT07 nucleotide sequence, 24DT07 substituted nucleotide sequence, 24DT07 truncated nucleotide sequence, 24DT07 added nucleotide sequence, control nucleotide sequence respectively and wild type maize plants (stages V3-V4) were performed respectively.
(§4) Maize plants containing 24DT07 nucleotide sequence, 24DT07 substituted nucleotide sequence, 24DT07 truncated nucleotide sequence, 24DT07 added nucleotide sequence, control nucleotide sequence respectively and wild type maize plants were taken and spayed with 2,4-D dimethyl ammonium salt (8960 g ae/ha, 16-folds concentration in field), agroxone (8960 g ae/ha, 16-folds concentration in field) and blank solvent (water) respectively. Prop root development was counted 21 days after spaying. Three strains (S1, S2, and S3) of corn plants transfected with 24DT07 nucleotide sequence, two strains (S4 and S5) of corn plants transfected with 24DT07 substituted nucleotide sequence, two strains (S6 and S7) of corn plants transfected with 24DT07 truncated nucleotide sequence, two strains (S8 and S9) of corn plants transfected with 24DT07 added nucleotide sequence, two strains (S10 and S11) of corn plants transfected with control nucleotide sequence and 1 strain of wild type (CK) corn were selected and 10-15 plants from each stain were tested.

[6] = system: maize plants containing 24DT07 truncated nucleotide sequence; experiment: as above; conditions: 8960 g ae/ha sprayed, 21 days after spraying
Procedure: as §3, §4

[7] = system: maize plants containing 24DT07 substituted nucleotide sequence; experiment: as above; conditions: corn strain S5 (24DT07 substituted); 8960 g ae/ha sprayed; 21 days after spraying
Procedure: as §3, §4

[8] = genotype 24DT07, 560 g ae/ha sprayed
[9] = corn strain S7 (24DT07 truncated)

SMILES	differences of resistance levels between Arabidopsis T1 plants transformed with 24DT07, substituted, truncated and added 24DT07 nucleotide sequence [1]	Highly resistant ([1]; genotype 24DT07)	Non-resistant [1, 8]	Highly resistant [2]	Non-resistant [2]	Highly resistant [3]	Non-resistant [3]	Highly resistant [4]	Non-resistant [4]	differences of resistance levels between corn plants transformed with 24DT07, substituted, truncated and added 24DT07 nucleotide sequence [5]	Ratio of the normally developed prop roots ([6]; corn strain S6 (24DT07 truncated)) [%]	Ratio of the normally developed prop roots [6, 9] [%]	Moderately resistant ([1]; genotype 24DT07, 560 g ae/ha sprayed, number of plants with curly rosette leaves 7 days after spraying)	Ratio of the normally developed prop roots [7] [%]
CNC.O=C(O)COc1ccc(Cl)cc1Cl [2,4-D dimethyl ammonium salt]	didn't show significant differences	20	0	17	0	18	0	16	0	didn't show significant differences	92.31	93.33		
Cc1cc(Cl)ccc1OCC(=O)O [agroxone]	didn't show significant differences	19	0	15	0	17	0	18	0	didn't show significant differences		91.67	3	92.86
